{"source": "patent US9376438B2", "about": "“Pyrazolopyrimidine derivatives as tyrosine kinase inhibitors” (Principia Biopharma, Inc., priority 2011, dated 2016)"}
{"molecular_target": "human recombinant Btk (Homo sapiens, UniProt Q06187)", "sequence (Q06187 whole entry)": "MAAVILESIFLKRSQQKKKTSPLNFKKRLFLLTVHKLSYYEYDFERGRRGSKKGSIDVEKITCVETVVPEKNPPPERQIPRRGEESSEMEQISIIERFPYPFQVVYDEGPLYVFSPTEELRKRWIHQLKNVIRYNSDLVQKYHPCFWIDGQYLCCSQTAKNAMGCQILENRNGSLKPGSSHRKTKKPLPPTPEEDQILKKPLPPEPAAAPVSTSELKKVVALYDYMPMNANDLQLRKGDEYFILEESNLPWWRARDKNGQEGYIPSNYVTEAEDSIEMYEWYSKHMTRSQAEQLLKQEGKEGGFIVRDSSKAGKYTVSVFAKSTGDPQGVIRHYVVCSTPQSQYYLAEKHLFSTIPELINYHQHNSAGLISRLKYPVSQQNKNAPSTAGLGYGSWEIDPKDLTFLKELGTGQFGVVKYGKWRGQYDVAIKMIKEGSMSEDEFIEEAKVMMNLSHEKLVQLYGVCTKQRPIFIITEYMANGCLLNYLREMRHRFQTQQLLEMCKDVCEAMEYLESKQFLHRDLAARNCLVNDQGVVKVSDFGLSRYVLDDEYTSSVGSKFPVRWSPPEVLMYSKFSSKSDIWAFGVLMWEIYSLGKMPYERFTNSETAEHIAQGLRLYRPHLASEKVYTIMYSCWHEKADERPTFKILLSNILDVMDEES", "experiment": "Btk Enzymatic Activity Assay (Caliper-based kinase assay)", "type": "biochemical", "details": "human recombinant Btk 2 nM, ATP 40 μM, peptide substrate 1 μM, room temperature, 3 h; read-out: IC50 (inhibition of Btk kinase activity)", "method": "A Caliper-based kinase assay (Caliper Life Sciences, Hopkinton, Mass.) was used to measure inhibition of Btk kinase activity of a compound of Formula (I). Serial dilutions of test compounds were incubated with human recombinant Btk (2 nM), ATP (40 μM) and a phosphoacceptor peptide substrate FAM-GEEPLYWSFPAKKK-NH2 (1 μM) at room temperature for 3 h. The reaction was then terminated with EDTA, final concentration 20 mM and the phosphorylated reaction product was quantified on a Caliper Desktop Profiler (Caliper LabChip 3000). Percent inhibition was calculated for each compound dilution and the concentration that produced 50% inhibition was calculated. This value is presented as the IC50.", "units": {"IC50": "nM"}}
{"smiles": "Nc1ncnc2c1c(-c1ccc(Oc3ccccc3)cc1)nn2C[C@H]1CCCN1C(=O)C(=CC1CC1)C(F)(F)F", "note": "[Example 2, (R)-1-(2-((4-amino-3-(4-phenoxyphenyl)-1H-pyrazolo[3,4-d]pyrimidin-1-yl)methyl)pyrrolidin-1-yl)-3-cyclopropyl-2-(trifluoromethyl)prop-2-en-1-one]", "IC50": 41}
{"smiles": "Nc1ncnc2c1c(-c1ccc(Oc3ccccc3)cc1)nn2CCN1C(=O)SC(=Cc2ccccc2)C1=O", "note": "[Example 4, 3-(2-(4-amino-3-(4-phenoxyphenyl)-1H-pyrazolo[3,4-d]pyrimidin-1-yl)ethyl)-5-benzylidenethiazolidine-2,4-dione]", "IC50": 860}
{"smiles": "Nc1ncnc2c1c(-c1ccc(Oc3ccccc3)cc1)nn2CCCN1C(=O)SC(=CC2CC2)C1=O", "note": "[Example 3, 3-(3-(4-amino-3-(4-phenoxyphenyl)-1H-pyrazolo[3,4-d]pyrimidin-1-yl)propyl)-5-(cyclopropylmethylene)thiazolidine-2,4-dione]", "IC50": 23}
{"smiles": "Nc1ncnc2c1c(-c1ccc(Oc3ccccc3)cc1)nn2C[C@H]1CCCN1C(=O)C(F)=CC1CC1", "note": "[Example 1, (R)-1-(2-((4-amino-3-(4-phenoxyphenyl)-1H-pyrazolo[3,4-d]pyrimidin-1-yl)methyl)pyrrolidin-1-yl)-3-cyclopropyl-2-fluoroprop-2-en-1-one]", "IC50": 203}
{"smiles": "Nc1ncnc2c1c(-c1ccc(Oc3ccccc3)cc1)nn2CCN1C(=O)SC(=CC2CC2)C1=O", "note": "[Example 5, 3-(2-(4-amino-3-(4-phenoxyphenyl)-1H-pyrazolo[3,4-d]pyrimidin-1-yl)ethyl)-5-(cyclopropylmethylene)thiazolidine-2,4-dione]", "IC50": 49}
